This is an account of results in patent publication US7521479B2 (priority 2001, dated 2009).

SMILES strings stand for the structures. Where a name gives a salt, the structure may show the parent alone.

One data set addresses PrP^Sc (Mus musculus, UniProt P04925). The conditions noted are these: neuroblastoma cell line permanently infected with prions; cited from earlier work.
The next data set deals with prions. The conditions noted are these: rodents, administered prophylactically; cited from earlier work.
The next data set has as its target Aβ1-40 (Homo sapiens, UniProt P05067). The note with it: cited from earlier work.
A further data set deals with scrapie strain ME7. It counts as in vivo, C57BL mice.
The conditions of data set [1]: in vivo; cited from earlier work.
Where [2] appears, read: group d, spleens, at time of death.

Sequence of Aβ1-40 (P05067 672-711 limits assumed): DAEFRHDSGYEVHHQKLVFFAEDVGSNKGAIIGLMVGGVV
Sequence of PrP^Sc (P04925 23-230 limits assumed): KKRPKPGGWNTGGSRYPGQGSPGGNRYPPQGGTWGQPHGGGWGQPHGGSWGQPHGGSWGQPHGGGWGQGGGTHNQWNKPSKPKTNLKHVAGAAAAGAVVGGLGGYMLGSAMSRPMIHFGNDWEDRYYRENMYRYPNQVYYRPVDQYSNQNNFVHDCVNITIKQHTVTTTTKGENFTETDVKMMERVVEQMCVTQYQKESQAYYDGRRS

In the case of `Nc1c(/N=N/c2ccc(-c3ccc(/N=N/c4cc(S(=O)(=O)O)c5ccccc5c4N)cc3)cc2)cc(S(=O)(=O)O)c2ccccc12` [Congo red], the “accumulation of PrP^Sc” value at PrP^Sc is “reduce the accumulation of PrP^Sc”. Besides, in the data set with prions, the disease onset entry is listed as “delay disease onset”.
Regarding `Oc1ccc(O)cc1` [Hydroquinone], at Aβ1-40, the “inhibition of Aβ1-40 aggregation and neurotoxicity” value was “inhibit Aβ1-40 aggregation and neurotoxicity at comparable molar concentrations to rifampicin”.
Take `Oc1ccc(O)c2ccccc12` [1,4-dihydroxynaphthalene]: the “inhibition of Aβ1-40 aggregation and neurotoxicity” value at Aβ1-40 was “inhibit Aβ1-40 aggregation and neurotoxicity at comparable molar concentrations to rifampicin”.
For the compound `N=C(N)N` [guanidine hydrochloride], in the data set with scrapie strain ME7 (setting [2]), the “PrP^Sc titers at the final endpoint versus group b” value was “lower PrP^Sc titers” and the “infectivity at the final endpoint versus group b” value is listed as “lower infectivity”. In the data set with scrapie strain ME7 (group d: ME7 i.p., oral treatment from 70 days post-infection, 15 then 40 mg/kg/day), the “survival (time of death) of treated infected mice” value is “live as long as the mice in group a”. Also, the “PrP^Sc level with treatment from one day post inoculation” value in the data set with scrapie strain ME7 (group f, prophylactic-like treatment) is recorded as “negligible or not much higher than that provided in the initial inoculum”. The “overall efficacy in scrapie” value with scrapie strain ME7 (overall results) is listed as “effective in the treatment of scrapie”. In addition, the side effects entry in data set [1] was “bone marrow depression to renal problems to cardiac arrhythmia”.
